Experimental findings from patent publication US20260216347A1, “Substituted Imidazo-Based Compounds as Ligand Directed Degraders of IRAK3” (Celgene Corporation, priority 2022, published 2026) are described below.

One test has as its target T1, IRAK3-ePL (Homo sapiens, UniProt Q9Y616).
T1 construct: expressed in transfected cells; host or cells: 293T CRBN OE/GSPT1 G575N KI cells, lentiviral transduction, puromycin selected
Description: IRAK3-ePL overexpressing degradation assay (InCELL Hunter luminescence, dose response). The test is classed as cell-based. The following applies: for IRAK3 ePL degradation Ymin: lowest percentage of target protein remaining following compound treatment; for DC50: read-out: IRAK3 ePL degradation EC50. The method, boiled down: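 Lenti-X 293T CRBN/GSPT1 G575N cells stably expressing IRAK3-ePL (5,000/well) treated overnight at 37° C with 10-point 3-fold dilutions from 10 μM, 0.2% DMSO. InCELL Hunter luminescence, background subtracted using Ataluren wells and normalized to DMSO; EC50 from four-parameter logistic fit.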

A further test addresses T2, IRAK3 (Homo sapiens, UniProt Q9Y616).
T2 construct: IRAK Endogenous HTRF Degradation Assay; endogenous in cells
T2 sequence (Q9Y616 1-596): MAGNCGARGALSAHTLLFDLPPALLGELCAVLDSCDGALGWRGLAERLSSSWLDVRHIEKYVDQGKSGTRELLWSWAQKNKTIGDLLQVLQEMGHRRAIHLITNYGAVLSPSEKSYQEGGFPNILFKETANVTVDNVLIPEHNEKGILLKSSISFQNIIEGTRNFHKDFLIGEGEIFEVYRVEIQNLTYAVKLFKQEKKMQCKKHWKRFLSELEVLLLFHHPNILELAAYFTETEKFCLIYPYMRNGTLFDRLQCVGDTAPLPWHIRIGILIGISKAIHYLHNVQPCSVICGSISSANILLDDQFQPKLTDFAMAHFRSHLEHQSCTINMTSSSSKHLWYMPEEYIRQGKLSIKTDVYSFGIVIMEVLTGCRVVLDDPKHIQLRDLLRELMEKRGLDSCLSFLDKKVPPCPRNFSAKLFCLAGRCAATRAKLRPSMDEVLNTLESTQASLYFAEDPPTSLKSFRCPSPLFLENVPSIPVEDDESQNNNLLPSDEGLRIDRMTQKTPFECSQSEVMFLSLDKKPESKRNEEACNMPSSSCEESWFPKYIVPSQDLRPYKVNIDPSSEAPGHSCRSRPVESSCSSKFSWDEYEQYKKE
Description: IRAK endogenous HTRF degradation assay (Total-IRAK3 HTRF kit). It counts as cell-based. Particulars: overnight incubation, lowest percentage of protein remaining. As to the method: Example B2. IRAK Endogenous HTRF Degradation Assay
Cells (~50 k) were plated in Cisbio 96-well low volume white plates (Cisbio: cat #66PL96005). Compounds were dissolved in DMSO and a 3-fold serial dilution was performed using a TECAN D300E. Cells were incubated with the compound overnight. Total-IRAK3 HTRF kit from Cisbio was used for degradation analysis (Cisbio: 63ADK101PEH). Cryptate and D2 antibodies were diluted in Detection buffer as per manufacturers recommendation. Then 2 μL of each solution was added to 16 μL lysate. Buffer control (lysis buffer detection buffer), Cryptate control (lysis buffer+cryptate antibody+detection buffer), and Negative control (lysis buffer+cryptate antibody+D2 antibody) were made as per manufacturers recommendation. Post incubation with antibodies the HTRF signal was measured using a Perkin Elmer Envision reader and the HTRF signal was calculated using formula: (Emission at 665 nm/Emission at 615 nm)*10,000. All HTRF values were normalized to the average value of DMSO. The average value of the DMSO control wells were set to equal 100% of the relative IRAK3 protein levels. Normalized luminescence values were plotted on a graph as a function of compound concentration. Compound concentration was plotted on the x-axis and the corresponding normalized IRAK3 protein levels on the y-axis. The EC50 value (the half-maximum effective concentration) of a compound for the degradation of the IRAK3 was calculated using a four-parameter logistic model (sigmoidal dose-response model) (FIT=(A+{(B−A)/1+[(C/x)D]})) where C is the inflection point (EC50), D is the […], and A and B are the low and high limits of the fit, respectively). The Ymin was calculated by determining the lowest percentage of target protein remaining following compound treatment. Dmax was calculated from Ymin (% Dmax=100−Ymin).
Using these assays, IC50, Dmax, EC50, and DC50 values of the following compounds were determined. Dmax is defined as the maximum percent degradation achieved and DC50 is the concentration at which 50% degradation is achieved.
(In general: TR-FRET usually uses a lanthanide donor and a delayed reading to cut background.)

`Cc1cc(-c2cnc(Nc3cnn([C@H]4CCN(CCN5CCN(c6ccc(C7CCC(=O)NC7=O)cc6)CC5)C[C@H]4F)c3)c3nccn23)c(F)cc1F` (stereo partly drawn) [Compound 63, 3-(4-(4-(2-((3R,4S)-4-(4-((5-(2,4-difluoro-5-methylphenyl)imdazo [1,2-a]pyrazin-8-yl)amino)-1H-pyrazol-1-yl)-3-fluoropiperidin-1-yl)ethyl)piperazin-1-yl)phenyl) piperidine-2,6-dione]: on IRAK3-ePL, the “IRAK3 ePL degradation Ymin” value turned out to be 25% and the DC50 came out at 0.51 nM. Further, the “IRAK3 HTRF degradation Ymin” value at IRAK3 stood at 8.9%.

Consider `Cc1cc(-c2cnc(Nc3cnn(C4CCN(CCN5CCN(c6ccc7c(C8CCC(=O)NC8=O)nn(C)c7c6)CC5)CC4)c3)c3nccn23)c(F)cc1F` (stereo not drawn) [Compound 39, 3-(6-(4-(2-(4-(4-((5-(2,4-difluoro-5-methylphenyl)imdazo [1,2-a]pyrazin-8-yl)amino)-1H-pyrazol-1-yl)piperidin-1-yl)ethyl)piperazin-1-yl)-1-methyl-1H-indazol-3-yl)piperidine-2,6-dione], for which, on IRAK3-ePL, the “IRAK3 ePL degradation Ymin” value is given as 32% and the DC50 came out at 0.51 nM. For the same molecule, on IRAK3, the “IRAK3 HTRF degradation Ymin” value was determined as 14. %.

Take `Cc1cc(-c2cnc(Nc3cnn(C4CCN(CCN5CCN(c6ccc(C7CCC(=O)NC7=O)cc6)[C@H](C)C5)CC4)c3)c3nccn23)c(F)cc1F` (stereo partly drawn) [Compound 50, 3-(4-((R)-4-(2-(4-(4-((5-(2,4-difluoro-5-methylphenyl)imdazo [1,2-a]pyrazin-8-yl)amino)-1H-pyrazol-1-yl)piperidin-1-yl)ethyl)-2-methylpiperazin-1-yl)phenyl) piperidine-2,6-dione]: at IRAK3-ePL, the “IRAK3 ePL degradation Ymin” value was 25% and the DC50 is 1.3 nM. For the same molecule, at IRAK3, the “IRAK3 HTRF degradation Ymin” value stood at 9.8%.

Turning to `Cc1cc(-c2cnc(Nc3cnn(C4CCN(CCN5CCN(c6ccc(C7CCC(=O)NC7=O)c(F)c6)CC5)CC4)c3)c3nccn23)c(F)cc1F` (stereo not drawn) [Compound 53, 3-(4-(4-(2-(4-(4-((5-(2,4-difluoro-5-methylphenyl)imdazo [1,2-a]pyrazin-8-yl)amino)-1H-pyrazol-1-yl)piperidin-1-yl)ethyl)piperazin-1-yl)-2-fluorophenyl)piper idine-2,6-dione], on IRAK3-ePL, the “IRAK3 ePL degradation Ymin” value amounted to 22% and the DC50 was 0.9 nM. For the same molecule, on IRAK3, the “IRAK3 HTRF degradation Ymin” value came to 11%.

Turning to `Cc1cc(-c2cnc(Nc3cnn([C@@H]4CCN(CCN5CCN(c6ccc(C7CCC(=O)NC7=O)cc6)CC5)[C@H](C)C4)c3)c3nccn23)c(F)cc1F` (stereo partly drawn) [Compound 30, 3-(4-(4-(2-((2R,4R)-4-(4-((5-(2,4-difluoro-5-methylphenyl)imdazo [1,2-a]pyrazin-8-yl)amino)-1H-pyrazol-1-yl)-2-methylpiperidin-1-yl)ethyl)piperazin-1-yl)phenyl) piperidine-2,6-dione], at IRAK3-ePL, the “IRAK3 ePL degradation Ymin” value was 24% and the DC50 stood at 0.51 nM. Further, on IRAK3, the “IRAK3 HTRF degradation Ymin” value was determined as 14%.

Consider `Cc1cc(-c2cnc(N(C)c3cnn(C4CCN(CCN5CCN(c6ccc(C7CCC(=O)NC7=O)cc6)CC5)CC4)c3)c3nccn23)c(F)cc1F` (stereo not drawn) [Compound 52, 3-(4-(4-(2-(4-(4-((5-(2,4-difluoro-5-methylphenyl)imdazo [1,2-a]pyrazin-8-yl)(methyl)amino)-1H-pyrazol-1-yl)piperidin-1-yl)ethyl)piperazin-1-yl)phenyl) piperidine-2,6-dione], for which, at IRAK3-ePL, the “IRAK3 ePL degradation Ymin” value is on record as 40% and the DC50 worked out at 96 nM. For the same molecule, the “IRAK3 HTRF degradation Ymin” value on IRAK3 is given as 74%.

Consider `Cc1cccc(-c2cnc(Nc3cnn([C@H]4CC[C@H](CCN5CCN(c6ccc(C7CCC(=O)NC7=O)cc6)CC5)CC4)c3)c3nccn23)c1` (stereo partly drawn) [Compound 64], for which, on IRAK3-ePL, the “IRAK3 ePL degradation Ymin” value was found to be 25% and the DC50 amounted to 4.2 nM. Also, at IRAK3, the “IRAK3 HTRF degradation Ymin” value was found to be 8.6%.

Take `Cc1cc(-c2cnc(Nc3cnn(C4CCN(CCN5CCN(c6ccc(C7CCC(=O)NC7=O)c(Cl)c6)CC5)CC4)c3)c3nccn23)c(F)cc1F` (stereo not drawn) [Compound 54, 3-(2-chloro-4-(4-(2-(4-(4-((5-(2,4-difluoro-5-methylphenyl)imdazo [1,2-a]pyrazin-8-yl)amino)-1H-pyrazol-1-yl)piperidin-1-yl)ethyl)piperazin-1-yl)phenyl) piperidine-2,6-dione]: on IRAK3-ePL, the “IRAK3 ePL degradation Ymin” value worked out at 28% and the DC50 came to 10 nM. For the same molecule, the “IRAK3 HTRF degradation Ymin” value on IRAK3 was determined as 15%.

For the molecule `Cc1cc(-c2cnc(N[C@H]3CCN(C4CCN(CCN5CCN(c6ccc(C7CCC(=O)NC7=O)cc6)CC5)CC4)C3)c3nccn23)c(F)cc1F` (stereo partly drawn) [Compound 65, 3-(4-(4-(2-(4-((S)-3-((5-(2,4-difluoro-5-methylphenyl)imdazo [1,2-a]pyrazin-8-yl)amino)pyrrolidin-1-yl)piperidin-1-yl)ethyl)piperazin-1-yl)phenyl) piperidine-2,6-dione], at IRAK3-ePL, the “IRAK3 ePL degradation Ymin” value is on record as 86% and the DC50 was determined as 3300 nM. Besides, the “IRAK3 HTRF degradation Ymin” value on IRAK3 is on record as 96%.

Regarding `Cc1ccc(F)c(-c2cnc(Nc3cnn(C4CCN(CCN5CCN(c6ccc(C7CCC(=O)NC7=O)cc6)CC5)CC4)c3)c3nccn23)c1` (stereo not drawn) [Compound 36, 3-(4-(4-(2-(4-(4-((5-(2-fluoro-5-methylphenyl)imdazo [1,2-a]pyrazin-8-yl)amino)-1H-pyrazol-1-yl)piperidin-1-yl)ethyl)piperazin-1-yl)phenyl) piperidine-2,6-dione], on IRAK3-ePL, the “IRAK3 ePL degradation Ymin” value turned out to be 24% and the DC50 was determined as 1.1 nM. At IRAK3, the “IRAK3 HTRF degradation Ymin” value is listed as 9.8%.

For the molecule `Cc1cc(-c2cnc(Nc3cnn(C4CCN(CCN5CCN(c6cccc7c(C8CCC(=O)NC8=O)nn(C)c67)CC5)CC4)c3)c3nccn23)c(F)cc1F` (stereo not drawn) [Compound 41, 3-(7-(4-(2-(4-(4-((5-(2,4-difluoro-5-methylphenyl)imdazo [1,2-a]pyrazin-8-yl)amino)-1H-pyrazol-1-yl)piperidin-1-yl)ethyl)piperazin-1-yl)-1-methyl-1H-indazol-3-yl)piperidine-2,6-dione], on IRAK3-ePL, the “IRAK3 ePL degradation Ymin” value is 25% and the DC50 was determined as 0.68 nM. Moreover, the “IRAK3 HTRF degradation Ymin” value at IRAK3 was found to be 8.7%.

For `O=C1CCC(c2ccc(N3CCN(CCN4CCC(n5cc(Nc6ncc(-c7cc8c(cc7F)OCCN8)n7ccnc67)cn5)CC4)CC3)cc2)C(=O)N1` (stereo not drawn) [Compound 51, 3-(4-(4-(2-(4-(4-((5-(7-fluoro-3,4-dihydro-2H-benzo[b][1,4]oxazin-6-yl)imidazo[1,2-a]pyrazin-8-yl)amino)-1H-pyrazol-1-yl)piperidin-1-yl)ethyl)piperazin-1-yl)phenyl) piperidine-2,6-dione], on IRAK3-ePL, the “IRAK3 ePL degradation Ymin” value stood at 24% and the DC50 is 2.5 nM. The “IRAK3 HTRF degradation Ymin” value at IRAK3 was 9.3%.

As to `Cc1cc(-c2cnc(Nc3cnn(C4CCN(CCN5[C@@H](C)CN(c6ccc(C7CCC(=O)NC7=O)cc6)C[C@@H]5C)CC4)c3)c3nccn23)c(F)cc1F` (stereo partly drawn) [Compound 56, 3-(4-((3S,5S)-4-(2-(4-(4-((5-(2,4-difluoro-5-methylphenyl)imdazo [1,2-a]pyrazin-8-yl)amino)-1H-pyrazol-1-yl)piperidin-1-yl)ethyl)-3,5-dimethylpiperazin-1-yl)phenyl) piperidine-2,6-dione], at IRAK3-ePL, the “IRAK3 ePL degradation Ymin” value stood at 23% and the DC50 is 0.75 nM. Besides, the “IRAK3 HTRF degradation Ymin” value on IRAK3 came to 8.6%.
